From ChEMBL document CHEMBL1157920, “Inhibition of antigen-induced degranulation by aryl compounds isolated from the bark of Betula platyphylla in RBL-2H3 cells” (2010) come the findings set out here.

Assay [1] deals with RBL-2H3. Description: Inhibition of anti-DNP-IgE-induced degranulation in rat RBL2H3 cells assessed as betahexosaminidase released at 100 uM after 20 mins by microplate reader assay. The format is functional. The following applies: RBL-2H3, 20 min.
The subject of assay [2] is RBL-2H3. Description: Inhibition of anti-DNP-IgE-induced degranulation in rat RBL2H3 cells assessed as betahexosaminidase released at 10 uM after 20 mins by microplate reader assay. As to conditions: RBL-2H3, 20 min. The format is functional.

The inhibition is the relative decrease from the control value, in per cent. Turning to `C[C@@H](O)CCc1ccc(O)cc1`, the inhibition at 100 µM in assay [1] is 36.5%. Also, the inhibition at 10 µM in assay [2] was found to be 29.7%.

As to `C[C@H](CCc1ccc(O)cc1)O[C@@H]1O[C@H](CO)[C@@H](O)[C@H](O)[C@H]1O`, in assay [1], the inhibition at 100 µM came to 42.3%. The inhibition at 10 µM in assay [2] worked out at 25%. Taken in the same sequence, the figures for `C[C@H](CCc1ccc(O)cc1)O[C@H]1O[C@H](COC(=O)C[C@@](C)(O)CC(=O)O)[C@@H](O)[C@H](O)[C@H]1O` were 20% and 26.6%. In the same order, the values of `OC[C@]1(O)CO[C@@H](OC[C@H]2O[C@@H](O[C@H](CCCCc3ccc(O)cc3)CCc3ccc(O)cc3)[C@H](O[C@H]3OC[C@@](O)(CO)[C@@H]3O)[C@@H](O)[C@@H]2O)[C@H]1O` are 23.2% and 22.1%. In the same order, the values of `O=C(CCc1ccc(O)cc1)C[C@@H](CCc1ccc(O)cc1)O[C@@H]1O[C@H](CO[C@@H]2OC[C@](O)(CO)[C@H]2O)[C@@H](O)[C@H](O)[C@H]1O[C@H]1OC[C@@](O)(CO)[C@@H]1O` are 23.4% and 11.8%. With `Oc1ccc(CCCC[C@@H](O)CCc2ccc(O)cc2)cc1`, the inhibition at 100 µM in assay [1] is 31.5%. Further, the inhibition at 10 µM in assay [2] was 19.2%. On to `OC[C@]1(O)CO[C@@H](OC[C@H]2O[C@@H](O[C@H](CCCCc3ccc(O)cc3)CCc3ccc(O)cc3)[C@H](O)[C@@H](O)[C@@H]2O)[C@H]1O` [ACEROSIDEVIII], for which, in assay [1], the inhibition at 100 µM turned out to be 22.4%. In addition, in assay [2], the inhibition at 10 µM turned out to be 11.7%. Taken in the same sequence, the figures for `C[C@H](CCc1ccc(O)cc1)O[C@@H]1O[C@H](CO[C@@H]2OC[C@@](O)(CO)[C@@H]2O)[C@@H](O)[C@H](O)[C@H]1O` [APIOSYLRHODODENDRIN] were 26.7% and 25.4%.

With `O=c1c(O)c(-c2ccc(O)c(O)c2)oc2cc(O)cc(O)c12` [QUERCETIN], the inhibition at 10 µM in assay [2] was 32.9%.
